Test results reported in patent US20240190889A1, “NEW CYCLOPENTA-THIENO-DIAZEPINE DERIVATIVES AS GABA A GAMMA1 POSITIVE ALLOSTERIC MODULATORS” (Hoffmann-La Roche Inc., priority 2021, published 2024).
Where two headings read alike, the source gives them in different places.

Columns and labels:
[1] = molecular target: human GABAA α1β3γ2 receptor (Homo sapiens (Human), UniProt P14867+P18507); assay: Radioligand binding assay, competition for [3H]Flumazenil, γ2-containing GABAA subtypes; conditions: for γ2/γ1 Selectivity Ratio: Ki α1β3γ2 (nM)/Ki α2β2γ1 (nM); for LogSel: Log[Ki α1β3γ2 (nM)/Ki α2β2γ1 (nM)]
Procedure: Membrane Preparation and Binding Assay for γ2-containing GABAA Subtypes
The affinity of compounds at GABAA γ2 subunit-containing receptors was measured by competition for [^3H]Flumazenil (81.1 Ci/mmol; Roche) binding to HEK293F cells expressing human (transiently transfected) receptors of composition α1β3γ2.
Harvested pellets from HEK293F cells expressing the different GABAA γ2 receptor subtypes were resuspended in Mannitol Buffer pH 7,2-7,4 and processed as described above for the cells expressing the GABAA γ1 subunit-containing receptors.
Assays were incubated to equilibrium for 1 hour at 4° C, and harvested onto GF/C uni-filters (Packard) by filtration using a Packard harvester and washing with ice-cold wash buffer (50 mM Tris; pH 7.5). After anhydrousing, filter-retained radioactivity was detected by liquid scintillation counting. Ki values were calculated using Excel-Fit (Microsoft) and are the means of two determinations.

[2] = molecular target: human GABAA α5β2γ1 receptor (Homo sapiens (Human), UniProt P31644+Q8N1C3); assay: Radioligand binding assay, competition for [3H]RO7239181, γ1-containing GABAA subtypes; conditions: membranes from HEK293F cells, mean of two determinations
Procedure: (§1) Membrane Preparation and Binding Assay for γ1-containing GABAA Subtypes
The affinity of compounds at GABAA γ1 subunit-containing receptors was measured by competition for [^3H]RO7239181 (67.3 Ci/mmol: Roche) binding to membranes from HEK293F cells (ThermoFisher R79007) expressing human (transiently transfected) receptors of composition α5β2γ1, α2β2γ1, α1β2γ1. For better protein expression of the α2 subunit-containing receptors, the 28 amino acid long signal peptide (Metl to Ala28) of the human GABAA α2 subunit was substituted by the 31 amino acid long signal peptide (Met1 to Ser31) of human GABAA α5 subunit.
(§2) Harvested pellets from HEK293F cells expressing the different GABAA receptor subtypes were resuspended in Mannitol Buffer pH 7.2-7.4 (Mannitol 0.29 M, Tricthylamine 10 mM. Acetic acid 10 mM. EDTA 1 mM plus protease inhibitors (20 tablets Complete. Roche Diagnostics Cat. No. 05 056 489 001 per liter)), washed two times and then resuspended at 1:10 to 1:15 dilution in the same buffer. Cell disruption was performed by stirring the suspension in a Parr vessel #4637 at 435 psi for 15 minutes, and then the suspensions were centrifuged at 1000×g for 15 minutes at 4° C. (Beckman Avanti J-HC: rotor JS-4.2). The supernatant (S1) was transferred in a 21 Schott flask and the pellet (P1) was resuspended with Mannitol Buffer up to 175 ml. The resuspended pellet was transferred into a 250 ml Corning centrifugal beaker and centrifuged at 1500 ×g for 10 minutes at 4° C. (Beckman Avanti J-HC: rotor JS-4.2). The supernatant (S1) was then transferred in the 21 Schott flask and the pellet was discarded. The supernatants (S1) were centrifuged in 500ml Beckman polypropylene centrifugal beaker at 15 000×g for 30 minutes at 4° C. (Beckman Avanti J-20 XP; rotor JLA-10.500). The pellet (P2) was resuspended with Mannitol Buffer 1:1 and frozen at −80° C. The supernatant (S2) was centrifuged in 100 ml Beckman polypropylene centrifugal tubes at 48000×g for 50 minutes at 4 °C (Beckman Avanti J-20 XP: rotor JA-18). The supernatant (S3) was discarded and the pellet (P3) was resuspended with 1:1 Mannitol Buffer. The P2 and P3 protein concentration was determined with the BIORAD Standard assay method with bovine serum albumin as standard and measured on the NANO-Drop 1000. The membrane suspension was aliquots (500μl per tube) and stored at −80° C. until required.
(§3) Membrane homogenates were resuspended and polytronised (Polytron PT1200E Kinematica AG) in Potassium Phosphate 10 mM, KCl 100 mM binding buffer at pH 7.4 to a final assay concentration determined with a previous experiment.
(§4) Radioligand binding assays were carried out in a volume of 200 μL (96-well plates) which contained 100 μL of cell membranes. [^3H]RO7239181 at a concentration of 1.5 nM (α5β2γ1) or 20-30 nM (α1β2γ1, α2β2γ1) and the test compound in the range of [0.3-10000]33 10^−9 M. Nonspecific binding was defined by 10×10^6 (α5β2γ1) and 30×10^6 M RO7239181 and typically represented less than 5% (α5β2γ1) and less than 20% (α1β2γ1, α2β2γ1) of the total binding. Assays were incubated to equilibrium for 1 hour at 4° C. and then, membranes were filtered onto unifilter (96-well white microplate with bonded GF/C filters preincubated 20-50 minutes in 0.3% Polyethylenimine) with a Filtermate 196 harvester (Packard BioScience) and washed 4 times with cold Potassium Phosphate 10 mM pH 7.4. KCl 100 mM binding buffer. After anhydrousing, filter-retained radioactivity was detected by liquid scintillation counting. Ki values were calculated using Excel-Fit (Microsoft) and are the means of two determinations.
Representative test results, obtained by the above described assay measuring binding affinity to HEK293 cells expressing human (h) receptors, are shown in the Table 1.

[3] = molecular target: human GABAA α2β2γ1 receptor (Homo sapiens (Human), UniProt P47869+Q8N1C3); assay: as above
Procedure: as §1
(§5) The affinity of compounds at GABAA γ1 subunit-containing receptors was measured by competition for [^3H]RO7239181 (67.3 Ci/mmol: Roche) binding to membranes from HEK293F cells (ThermoFisher R79007) expressing human (transiently transfected) receptors of composition α5β2γ1, α2β2γ1, α1β2γ1.
as §2, §3
as §4, with “[^3H]RO7239181 at a concentration of 1.5 nM (α5β2γ1) or 20-30 nM (α1β2γ1, α2β2γ1) and the test compound in the range of [0.3-10000]33 10^−9 M. Nonspecific binding was defined by 10×10^6 (α5β2γ1) and 30×10^6 M RO7239181 and typically represented less than 5% (α5β2γ1) and less than 20% (α1β2γ1, α2β2γ1) of the total binding.” left out

[4] = molecular target: h-GABA-A α2β2γ1 receptor expressed in Xenopus laevis oocytes (Homo sapiens (Human), UniProt P47869+Q8N1C3); assay: Two-electrode voltage clamp electrophysiology in Xenopus oocytes expressing GABAA receptors; type: cell-based; conditions: reference PAMs, GABA EC20
Description: Functional Expression of GABAA Receptors:
Xenopus Oocytes Preparation
Xenopus laevis oocytes at maturation stages V-VI were used for the expression of cloned mRNA encoding GABAA receptor subunits. Oocytes ready for RNA micro-injection were bought from Ecocyte, Castrop-Rauxel, Germany and stored in modified Barth's medium (composition in mM: NaCl 88, KCl 1, NaHCO3 2.4, HEPES 10, MgSO4 0.82, CaNO3 0.33, CaCl2 0.33, pH=7.5) at 20 C. until the experiment.
Xenopus Oocytes Microinjection
Oocytes were plated in 96-well plates for microinjection using the Roboinject automated instrument (MultiChannelSystems, Reutlingen, Germany). Approximately 50 nL of an aqueous solution containing the RNA transcripts for the subunits of the desired GABAA receptor subtype was injected into each oocyte. […] Oocytes were kept in modified Barth's medium (composition in mM: NaCl 88, KCl 1, NaHCO3 […], HEPES 10, MgSO4 0.82, CaNO3 0.33, CaCl2 0.33, pH=7.5) at 20° C. until the experiment.
Electrophysiological experiments were performed using the Roboocyte instrument (MultiChannelSystems, Reutlingen, Germany) on days 3 to 5 after the micro-injection of mRNA. During the experiment the oocytes were constantly superfused by a solution containing (in mM) NaCl 90, KCl 1, HEPES 5, MgCl: 1, CaCl, 1 (pH 7.4). Oocytes were impaled by two glass microelectrodes (resistance: 0.5-0.8 MS2) which were filled with a solution containing KCl 1M +K-acetate 1.5 M and voltage-clamped to −80 mV. The recordings were performed at room temperature using the Roboocyte two-electrode voltage clamp system (Multichannelsystem). After an initial equilibration period of 1.5 min GABA was added for 1.5 min at a concentration evoking approximately 20% of a maximal current response (EC20). After another rest interval of 2.5 min GABA was again added evoking a response of similar amplitude and shape. […] Current traces were recorded at a digitization rate of 10 Hz during and shortly before and after the GABA application.
Each compound and concentration was tested on at least 3 oocytes. Different oocytes were used for different compound concentrations.
For the analysis, the digitized current traces of the first and second GABA response were superimposed and, if necessary, rescaled to equal maximal amplitudes. The ratio between the two responses during the time interval of test compound application was calculated point by point. The extremum of the resulting “ratio trace” was taken as the efficacy (“Fold increase”) of the compound expressed as “% modulation of GABA EC” (100* (Fold increase-1)).

[5] = molecular target: human GABAA α1β2γ1 receptor (Homo sapiens (Human), UniProt P14867+Q8N1C3); assay: Radioligand binding assay, competition for [3H]RO7239181, γ1-containing GABAA subtypes
Procedure: as §1, §5, §2, §3
as §4, with “[^3H]RO7239181 at a concentration of 1.5 nM (α5β2γ1) or 20-30 nM (α1β2γ1, α2β2γ1) and the test compound in the range of [0.3-10000]33 10^−9 M. Nonspecific binding was defined by 10×10^6 (α5β2γ1) and 30×10^6 M RO7239181 and typically represented less than 5% (α5β2γ1) and less than 20% (α1β2γ1, α2β2γ1) of the total binding.” left out

Cc1nnc2n1-c1ccc(Cl)cc1C(c1ccccc1)=NC2 [Alprazolam, reference compound]
γ2/γ1 Selectivity Ratio [1]: 0.0050
LogSel [1]: −2.3

C[C@@H]1N=C(c2c(F)cccc2F)c2c(sc3c2C[C@H](C(F)F)C3)-n2c(CO)cnc21 [Example 22, [(7S,13S)-13-(difluoromethyl)-9-(2,6-difluorophenyl)-7-methyl-16-thia-2,5,8-triazatetracyclo [8.6.0.02,6.011,15]hexadeca-1(10),3,5,8,11(15)-pentaen-3-yl]methanol]
Ki [2]: 0.0443 µM
Ki [3]: 0.0102 µM
Ki ([3]; read-out: Ki h-GABAA α2β2γ1, membranes from HEK293F cells, [3H]RO7239181 20-30 nM, mean of two determinations): 0.0102 µM
Ki [1]: 2.51 µM
LogSel [1]: 1.75

CN1C(=O)CN=C(c2ccccc2F)c2cc([N+](=O)[O-])ccc21 [Flunitrazepam, reference compound]
potentiation of the GABA-induced current in α2β2γ1 GABAA receptor subtype expressing oocytes [4]: ~60%

Cc1ncc2n1-c1ccc(Cl)cc1C(c1ccccc1F)=NC2 [Midazolam, reference compound]
γ2/γ1 Selectivity Ratio [1]: 0.0068
LogSel [1]: −2.2
potentiation of the GABA-induced current in α2β2γ1 GABAA receptor subtype expressing oocytes [4]: ~60%

Cc1nnc2n1-c1sc3c(c1C(c1ccccc1Cl)=NC2)CCC3 [RE-A, reference compound]
Ki [3]: 0.0175 µM
Ki [1]: 0.0066 µM
γ2/γ1 Selectivity Ratio [1]: 0.38
LogSel [1]: −0.42

CCOC(=O)C1Cc2sc3c(c2C1)C(c1ccccc1Cl)=NCc1nnc(C)n1-3 (centres unmarked) [RE-B, reference compound]
Ki [3]: 0.734 µM
Ki ([1]; HEK293F cell membranes, [3H]Flumazenil 1 nM, mean of two determinations, read-out: Ki h-GABAA α1β3γ2): 1.22 µM
γ2/γ1 Selectivity Ratio [1]: 1.66
LogSel [1]: 0.22

Cc1nnc2n1-c1sc3c(c1C(c1c(F)cccc1F)=N[C@H]2C)CCC3 [RE-C, (7S)-9-(2,6-difluorophenyl)-3,7-dimethyl-16-thia-2,4,5,8-tetrazatetracyclo [8.6.0.02,6.011,15]hexadeca-1(10),3,5,8,11(15)-pentaene, reference compound]
Ki [5]: 0.00259 µM
Ki [3]: 0.0204 µM
Ki [1]: 0.0172 µM
γ2/γ1 Selectivity Ratio [1]: 0.84
LogSel [1]: −0.07

Cc1nnc2n1-c1ccc(Cl)cc1C(c1ccccc1Cl)=NC2 [Triazolam, reference compound]
LogSel [1]: −1.5
potentiation of the GABA-induced current in α2β2γ1 GABAA receptor subtype expressing oocytes [4]: ~60%
